Measured values as given in PubChem BioAssay (NCI).
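Dose response: 5 concentrations. Exposure: 48 h. Format: 96-well plates. Endpoint: linear interpolation; highest concentration if not reached. TGI: total growth inhibition.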

Assays:
Test in all cases: NCI tumour cell line growth inhibition, 48 h
[1] = tested on: HCT-15 colon
[2] = tested on: NCI-H226 lung
[3] = tested on: RPMI-8226 leukemia
[4] = tested on: SF-539 CNS
[5] = tested on: P388 leukemia
[6] = tested on: A549 NSCLC
[7] = tested on: U251 CNS
[8] = tested on: CCRF-CEM leukemia
[9] = tested on: UACC-257 melanoma
[10] = tested on: NCI/ADR-RES ovarian
[11] = tested on: SN12C renal
[12] = tested on: XF 498 CNS
[13] = tested on: OVCAR-4 ovarian
[14] = tested on: LOX IMVI melanoma
[15] = tested on: SW-620 colon
[16] = tested on: SF-295 CNS
[17] = tested on: HOP-62 NSCLC
[18] = tested on: OVCAR-3 ovarian
[19] = tested on: KM12 colon
[20] = tested on: MCF7 breast
[21] = tested on: SK-OV-3 ovarian
[22] = tested on: SK-MEL-2 melanoma
[23] = tested on: MALME-3M melanoma
[24] = tested on: SN12K1 renal
[25] = tested on: DMS 273 small cell lung
[26] = tested on: SK-MEL-5 melanoma
[27] = tested on: M19-MEL melanoma
[28] = tested on: HCC-2998 colon
[29] = tested on: EKVX NSCLC
[30] = tested on: HT29 colon
[31] = tested on: DMS 114 small cell lung
[32] = tested on: DLD-1 colon
[33] = tested on: SNB-19 CNS
[34] = tested on: HOP-18 NSCLC
[35] = tested on: OVCAR-5 ovarian
[36] = tested on: A498 renal
[37] = tested on: NCI-H23 lung
[38] = tested on: COLO 205 colon
[39] = tested on: HL-60(TB) leukemia
[40] = tested on: IGROV1 ovarian
[41] = tested on: NCI-H522 lung
[42] = tested on: OVCAR-8 ovarian
[43] = tested on: UACC-62 melanoma
[44] = tested on: RXF 393 renal
[45] = tested on: P388/ADR leukemia
[46] = tested on: SNB-75 CNS
[47] = tested on: SNB-78 CNS
[48] = tested on: SK-MEL-28 melanoma
[49] = tested on: MOLT-4 leukemia
[50] = tested on: HCT-116 colon
[51] = tested on: KM20L2 colon
[52] = tested on: K-562 leukemia
[53] = tested on: HOP-92 NSCLC
[54] = tested on: NCI-H460 lung
[55] = tested on: SF-268 CNS
[56] = tested on: UO-31 renal

COC(=O)C(C/C=C(\C)c1ccccc1)C(C)=O (stereo not given)
TGI [1]: > 100 µM
TGI [2]: > 100 µM
TGI [3]: > 100 µM
TGI [4]: > 100 µM
TGI [5]: > 82.1 µM
TGI [6]: > 100 µM
TGI [7]: > 100 µM
TGI [8]: > 100 µM
TGI [9]: > 87.4 µM
TGI [10]: > 100 µM
TGI [11]: > 100 µM
TGI [12]: > 100 µM
TGI [13]: > 100 µM
TGI [14]: > 100 µM
TGI [15]: > 100 µM
TGI [16]: > 100 µM
TGI [17]: > 100 µM
TGI [18]: > 100 µM
TGI [19]: > 100 µM
TGI [20]: > 100 µM
TGI [21]: > 100 µM
TGI [22]: > 100 µM
TGI [23]: > 100 µM
TGI [24]: > 82.8 µM
TGI [25]: > 100 µM
TGI [26]: > 100 µM
TGI [27]: > 100 µM
TGI [28]: > 100 µM
TGI [29]: > 100 µM
TGI [30]: > 100 µM
TGI [31]: > 95.9 µM
TGI [32]: > 100 µM
TGI [33]: > 100 µM
TGI [34]: > 100 µM
TGI [35]: > 100 µM
TGI [36]: > 100 µM
TGI [37]: > 100 µM
TGI [38]: > 100 µM
TGI [39]: 53.6 µM
TGI [40]: > 100 µM
TGI [41]: > 100 µM
TGI [42]: > 100 µM
TGI [43]: > 100 µM
TGI [44]: > 100 µM
TGI [45]: > 100 µM
TGI [46]: > 100 µM
TGI [47]: > 100 µM
TGI [48]: > 100 µM
TGI [49]: 51.6 µM
TGI [50]: > 100 µM
TGI [51]: > 100 µM
TGI [52]: > 100 µM
TGI [53]: 98.3 µM
TGI [54]: > 100 µM
TGI [55]: > 100 µM
TGI [56]: > 100 µM

CSc1nc(SC)c2cnn(CC3CO3)c2n1 (stereo not given)
TGI [1]: > 61.4 µM
TGI [2]: 38.7 µM
TGI [3]: > 100 µM
TGI [4]: 38.5 µM
TGI [5]: > 54.5 µM
TGI [6]: 64.8 µM
TGI [7]: 45.4 µM
TGI [8]: 70.5 µM
TGI [9]: 37.4 µM
TGI [10]: 36.3 µM
TGI [11]: > 50.1 µM
TGI [12]: 45.4 µM
TGI [13]: 44.2 µM
TGI [14]: 19.8 µM
TGI [15]: > 44.7 µM
TGI [16]: 55.4 µM
TGI [17]: 41.2 µM
TGI [18]: > 65.1 µM
TGI [19]: 39.2 µM
TGI [20]: 25.7 µM
TGI [21]: > 100 µM
TGI [22]: 31.7 µM
TGI [23]: 45.2 µM
TGI [24]: 21.6 µM
TGI [25]: > 54.6 µM
TGI [26]: 17.8 µM
TGI [27]: 27.1 µM
TGI [28]: 31.3 µM
TGI [29]: > 75.4 µM
TGI [30]: 47.1 µM
TGI [31]: 32.6 µM
TGI [32]: 53.9 µM
TGI [33]: > 100 µM
TGI [34]: > 100 µM
TGI [35]: 41.3 µM
TGI [36]: > 100 µM
TGI [37]: 34.6 µM
TGI [38]: 35.5 µM
TGI [39]: 45.4 µM
TGI [40]: 38.1 µM
TGI [41]: 77.3 µM
TGI [42]: 15.8 µM
TGI [43]: 33.5 µM
TGI [44]: 34 µM
TGI [45]: > 57 µM
TGI [46]: 44.7 µM
TGI [48]: 18.6 µM
TGI [49]: 7.73 µM
TGI [50]: 31.9 µM
TGI [51]: 43.4 µM
TGI [52]: > 100 µM
TGI [54]: 40.8 µM
TGI [55]: 33.9 µM
TGI [56]: 45 µM
